Reference: patent US11178869B2, “Microbiocidal quinoline (thio)carboxamide derivatives” (priority 2017, dated 2021)
Read-outs that look alike come from different tables or passages of the source.

Key:
Fusarium culmorum [1] = test: microbe, parasite or virus in culture; format: cell-based; details: read-out: disease control
[2] = tested on: Glomerella lagenarium (Colletotrichum lagenarium); test: Glomerella lagenarium (Colletotrichum lagenarium) / liquid culture (anthracnose); format: cell-based; details: Colletotrichum orbiculare, read-out: disease control
[3] = tested on: Botryotinia fuckeliana (Botrytis cinerea); test: Botryotinia fuckeliana (Botrytis cinerea) / liquid culture (gray mould); format: cell-based; details: 72 h, 200 ppm, compared to untreated control, growth inhibition photometrically 3-4 days after application, read-out: disease control
[4] = tested on: Monographella nivalis (Microdochium nivale); test: Monographella nivalis (Microdochium nivale) / liquid culture (foot rot cereals); format: cell-based; details: 200 ppm, compared to untreated control, growth inhibition photometrically 4-5 days after application, read-out: disease control
Fusarium culmorum [5] = test: whole plant or invertebrate; format: in vivo, Fusarium culmorum on wheat spikelets cv. Monsun; details: in Triticum aestivum, 144 h, read-out: control of Fusarium culmorum
[6] = 200 ppm, compared to untreated control, growth inhibition photometrically 3-4 days after application

C#CCC(C)(CC(C)C)NC(=O)c1cnc2c(F)cccc2c1 (stereo not shown) [Compound E-2, 8-fluoro-N-(1-isobutyl-1-methyl-but-3-ynyl)quinoline-3-carboxamide]
≥ 80%: inhibition of growth at 200 ppm (Fusarium culmorum [1]) | inhibition of growth at 200 ppm [2, 6] | inhibition of growth at 200 ppm [3]

CC(C)(C#Cc1ccccc1F)NC(=O)c1cnc2c(F)cccc2c1 [Compound F-18, 8-fluoro-N-[3-(2-fluorophenyl)-1,1-dimethyl-prop-2-ynyl]quinoline-3-carboxamide]
≥ 80%: inhibition of growth at 200 ppm (Fusarium culmorum [1]) | inhibition of growth at 200 ppm [4] | inhibition of growth at 200 ppm [2, 6] | inhibition of growth at 200 ppm [3]

Cc1ccc(C#N)cc1C#CC(C)(C)NC(=O)c1cnc2c(F)cccc2c1 [Compound F-19, N-[3-(5-cyano-2-methyl-phenyl)-1,1-dimethyl-prop-2-ynyl]-8-fluoro-quinoline-3-carboxamide]
≥ 80%: inhibition of growth at 200 ppm (Fusarium culmorum [1]) | inhibition of growth at 200 ppm [4] | inhibition of growth at 200 ppm [2, 6] | inhibition of growth at 200 ppm [3]

CC(C)(C#Cc1ccc(F)c(F)c1)NC(=O)c1cnc2c(F)cccc2c1 [Compound F-20, N-[3-(3,4-difluorophenyl)-1,1-dimethyl-prop-2-ynyl]-8-fluoro-quinoline-3-carboxamide]
≥ 80%: inhibition of growth at 200 ppm (Fusarium culmorum [1]) | inhibition of growth at 200 ppm [4] | inhibition of growth at 200 ppm [2, 6] | inhibition of growth at 200 ppm [3]

Cc1ccc(C)c(C#CC(C)(C)NC(=O)c2cnc3c(F)cccc3c2)c1 [Compound F-22, N-[3-(2,5-dimethylphenyl)-1,1-dimethyl-prop-2-ynyl]-8-fluoro-quinoline-3-carboxamide]
≥ 80%: inhibition of growth at 200 ppm (Fusarium culmorum [1]) | inhibition of growth at 200 ppm [2, 6] | inhibition of growth at 200 ppm [3]

Cc1cccc(C#CC(C)(C)NC(=O)c2cnc3c(F)cccc3c2)c1C [Compound F-26, N-[3-(2,3-dimethylphenyl)-1,1-dimethyl-prop-2-ynyl]-8-fluoro-quinoline-3-carboxamide]
≥ 80%: inhibition of growth at 200 ppm (Fusarium culmorum [1]) | inhibition of growth at 200 ppm [4] | inhibition of growth at 200 ppm [2, 6] | inhibition of growth at 200 ppm [3]

CC(C)(C#Cc1ccc(F)cc1)NC(=O)c1cnc2c(F)cccc2c1 [Compound F-27, 8-fluoro-N-[3-(4-fluorophenyl)-1,1-dimethyl-prop-2-ynyl]quinoline-3-carboxamide]
≥ 80%: inhibition of growth at 200 ppm (Fusarium culmorum [1]) | inhibition of growth at 200 ppm [4] | inhibition of growth at 200 ppm [2, 6] | inhibition of growth at 200 ppm [3]

COc1ccc(C#CC(C)(C)NC(=O)c2cnc3c(F)cccc3c2)cc1 [Compound F-28, 8-fluoro-N-[3-(4-methoxyphenyl)-1,1-dimethyl-prop-2-ynyl]quinoline-3-carboxamide]
≥ 80%: pest or weed control at 200 ppm (Fusarium culmorum [5]) | inhibition of growth at 200 ppm (Fusarium culmorum [1]) | inhibition of growth at 200 ppm [4] | inhibition of growth at 200 ppm [2, 6] | inhibition of growth at 200 ppm [3]

Cc1cc(C)cc(C#CC(C)(C)NC(=O)c2cnc3c(F)cccc3c2)c1 [Compound F-30, N-[3-(3,5-dimethylphenyl)-1,1-dimethyl-prop-2-ynyl]-8-fluoro-quinoline-3-carboxamide]
≥ 80%: inhibition of growth at 200 ppm (Fusarium culmorum [1]) | inhibition of growth at 200 ppm [4] | inhibition of growth at 200 ppm [2, 6] | inhibition of growth at 200 ppm [3]

Cc1ccc(C#CC(C)(C)NC(=O)c2cnc3c(F)cccc3c2)cc1C [Compound F-32, N-[3-(3,4-dimethylphenyl)-1,1-dimethyl-prop-2-ynyl]-8-fluoro-quinoline-3-carboxamide]
≥ 80%: inhibition of growth at 200 ppm (Fusarium culmorum [1]) | inhibition of growth at 200 ppm [4] | inhibition of growth at 200 ppm [2, 6] | inhibition of growth at 200 ppm [3]

Cc1ccc(C#CC(C)(C)NC(=O)c2cnc3c(F)cccc3c2)c(C)c1 [Compound F-33, N-[3-(2,4-dimethylphenyl)-1,1-dimethyl-prop-2-ynyl]-8-fluoro-quinoline-3-carboxamide]
≥ 80%: inhibition of growth at 200 ppm (Fusarium culmorum [1]) | inhibition of growth at 200 ppm [4] | inhibition of growth at 200 ppm [2, 6] | inhibition of growth at 200 ppm [3]

Cc1cc(C#N)ccc1C#CC(C)(C)NC(=O)c1cnc2c(F)cccc2c1 [Compound F-34, N-[3-(4-cyano-2-methyl-phenyl)-1,1-dimethyl-prop-2-ynyl]-8-fluoro-quinoline-3-carboxamide]
≥ 80%: inhibition of growth at 200 ppm (Fusarium culmorum [1]) | inhibition of growth at 200 ppm [4] | inhibition of growth at 200 ppm [3]

CC(C)(C#Cc1cccc(C#N)c1)NC(=O)c1cnc2c(F)cccc2c1 [Compound F-36, N-[3-(3-cyanophenyl)-1,1-dimethyl-prop-2-ynyl]-8-fluoro-quinoline-3-carboxamide]
≥ 80%: inhibition of growth at 200 ppm (Fusarium culmorum [1]) | inhibition of growth at 200 ppm [4] | inhibition of growth at 200 ppm [3]

COc1ccccc1C#CC(C)(C)NC(=O)c1cnc2c(F)cccc2c1 [Compound F-37, 8-fluoro-N-[3-(2-methoxyphenyl)-1,1-dimethyl-prop-2-ynyl]quinoline-3-carboxamide]
≥ 80%: inhibition of growth at 200 ppm (Fusarium culmorum [1]) | inhibition of growth at 200 ppm [4] | inhibition of growth at 200 ppm [2, 6] | inhibition of growth at 200 ppm [3]

COc1cc(C#CC(C)(C)NC(=O)c2cnc3c(F)cccc3c2)ccc1Cl [Compound F-38, N-[3-(4-chloro-3-methoxy-phenyl)-1,1-dimethyl-prop-2-ynyl]-8-fluoro-quinoline-3-carboxamide]
≥ 80%: inhibition of growth at 200 ppm (Fusarium culmorum [1]) | inhibition of growth at 200 ppm [4] | inhibition of growth at 200 ppm [2, 6] | inhibition of growth at 200 ppm [3]

Cc1cccc(C#CC(C)(C)NC(=O)c2cnc3c(F)cccc3c2)c1 [Compound F-39, N-[1,1-dimethyl-3-(m-tolyl)prop-2-ynyl]-8-fluoro-quinoline-3-carboxamide]
≥ 80%: pest or weed control at 200 ppm (Fusarium culmorum [5]) | inhibition of growth at 200 ppm (Fusarium culmorum [1]) | inhibition of growth at 200 ppm [4] | inhibition of growth at 200 ppm [2, 6] | inhibition of growth at 200 ppm [3]

CC(C)(C#Cc1cc(F)cc(F)c1)NC(=O)c1cnc2c(F)cccc2c1 [Compound F-40, N-[3-(3,5-difluorophenyl)-1,1-dimethyl-prop-2-ynyl]-8-fluoro-quinoline-3-carboxamide]
≥ 80%: pest or weed control at 200 ppm (Fusarium culmorum [5]) | inhibition of growth at 200 ppm (Fusarium culmorum [1]) | inhibition of growth at 200 ppm [4] | inhibition of growth at 200 ppm [2, 6] | inhibition of growth at 200 ppm [3]

CC(C)(C#Cc1ccccc1C#N)NC(=O)c1cnc2c(F)cccc2c1 [Compound F-41, N-[3-(2-cyanophenyl)-1,1-dimethyl-prop-2-ynyl]-8-fluoro-quinoline-3-carboxamide]
≥ 80%: inhibition of growth at 200 ppm (Fusarium culmorum [1]) | inhibition of growth at 200 ppm [4] | inhibition of growth at 200 ppm [2, 6] | inhibition of growth at 200 ppm [3]

CC(C)(C#Cc1ccc(C(F)(F)F)cc1)NC(=O)c1cnc2c(F)cccc2c1 [Compound F-42, N-[1,1-dimethyl-3-[4-(trifluoromethyl)phenyl]prop-2-ynyl]-8-fluoro-quinoline-3-carboxamide]
≥ 80%: inhibition of growth at 200 ppm (Fusarium culmorum [1]) | inhibition of growth at 200 ppm [4] | inhibition of growth at 200 ppm [2, 6] | inhibition of growth at 200 ppm [3]

COc1ccc(C(F)(F)F)cc1C#CC(C)(C)NC(=O)c1cnc2c(F)cccc2c1 [Compound F-43, 8-fluoro-N-[3-[2-methoxy-5-(trifluoromethyl)phenyl]-1,1-dimethyl-prop-2-ynyl]quinoline-3-carboxamide]
≥ 80%: inhibition of growth at 200 ppm (Fusarium culmorum [1]) | inhibition of growth at 200 ppm [2, 6] | inhibition of growth at 200 ppm [3]

CC#CC(C)(C)NC(=O)c1cnc2c(F)cccc2c1 [Compound F-53, N-(1,1-dimethylbut-2-ynyl)-8-fluoro-quinoline-3-carboxamide]
≥ 80%: inhibition of growth at 200 ppm (Fusarium culmorum [1]) | inhibition of growth at 200 ppm [2]

C[C@@](CC#CC1CC1)(CC(F)(F)F)NC(=O)c1cnc2c(F)cccc2c1 [Compound G-1, N-[(1R)-4-cyclopropyl-1-methyl-1-(2,2,2-trifluoroethyl)but-3-ynyl]-8-fluoro-quinoline-3-carboxamide]
≥ 80%: inhibition of growth at 200 ppm (Fusarium culmorum [1]) | inhibition of growth at 200 ppm [4] | inhibition of growth at 200 ppm [3]

C[C@](CC#CC1CC1)(CC(F)(F)F)NC(=O)c1cnc2c(F)cccc2c1 [Compound G-2, N-[(1S)-4-cyclopropyl-1-methyl-1-(2,2,2-trifluoroethyl)but-3-ynyl]-8-fluoro-quinoline-3-carboxamide]
≥ 80%: inhibition of growth at 200 ppm (Fusarium culmorum [1]) | inhibition of growth at 200 ppm [3]
